We go through 19 compounds from US8022099B2, “N-benzyl pyrrolidine derivatives” (Hoffmann-La Roche Inc., priority 2008, dated 2011).

Structures are written as SMILES.

The target of the assay is T1, human NK3 receptor (Homo sapiens, UniProt P29371).
T1 construct: expressed in transfected cells; host or cells: HEK293 cells (transient expression), membrane preparation
T1 sequence (P29371 1-465): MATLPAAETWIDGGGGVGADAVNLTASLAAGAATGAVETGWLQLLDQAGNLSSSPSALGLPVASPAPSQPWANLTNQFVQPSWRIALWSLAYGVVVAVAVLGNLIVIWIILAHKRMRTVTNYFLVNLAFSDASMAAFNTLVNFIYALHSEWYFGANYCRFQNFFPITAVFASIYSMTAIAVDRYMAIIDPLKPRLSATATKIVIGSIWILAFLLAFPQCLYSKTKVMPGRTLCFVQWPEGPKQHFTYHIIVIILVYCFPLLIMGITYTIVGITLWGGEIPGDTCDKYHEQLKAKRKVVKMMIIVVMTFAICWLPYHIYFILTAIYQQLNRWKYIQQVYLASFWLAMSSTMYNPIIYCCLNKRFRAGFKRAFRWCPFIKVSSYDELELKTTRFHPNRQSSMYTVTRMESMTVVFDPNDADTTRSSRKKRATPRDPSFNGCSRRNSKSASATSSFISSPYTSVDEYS
Briefly: [3H]SR142801 competition binding assay. Conditions: hNK3 receptor binding, [3H]SR142801, membranes from HEK293 cells transiently expressing recombinant human NK3 receptor. As to the method:
[^3H]SR142801 Competition Binding Assay
hNK3 receptor binding experiment were performed using [^3H]SR142801 (Catalog No. TRK1035, specific activity: 74.0 Ci/mmol, Amersham, GE Healthcare UK limited, Buckinghamshire, UK) and membrane isolated from HEK293 cells transiently expressing recombinant human NK3 receptor. After thawing, the membrane homogenates were centrifuged at 48,000×g for 10 min at 4° C., the pellets were resuspended in the 50 mM Tris-HCl, 4 mM MnCl2, 1 μM phosphoramidon, 0.1% BSA binding buffer at pH 7.4 to a final assay concentration of 5 μg protein/well. For inhibition experiments, membranes were incubated with [^3H]SR142801 at a concentration equal to KD value of radioligand and 10 concentrations of the inhibitory compound (0.0003-10 μM) (in a total reaction volume of 500 μl) for 75 min at room temperature (RT). At the end of the incubation, membranes were filtered onto unitfilter (96-well white microplate with bonded GF/C filter preincubated 1 h in 0.3% PEI+0.3% BSA, Packard BioScience, Meriden, Conn.) with a Filtermate 196 harvester (Packard BioScience) and washed 4 times with ice-cold 50 mM Tris-HCl, pH 7.4 buffer. Nonspecific binding was measured in the presence of 10 μM SB222200 for both radioligands. The radioactivity on the filter was counted (5 min) on a Packard Top-count microplate scintillation counter with quenching correction after addition of 45 μl of microscint 40 (Canberra Packard S. A., Zürich, Switzerland) and shaking for 1 h. Inhibition curves were fitted according to the Hill equation: y=100/(1+(x/IC50)^nH), where nH=slope factor using Excel-fit 4 software (Microsoft). IC50 values were derived from the inhibition curve and the affinity constant (Ki) values were calculated using the Cheng-Prussoff equation Ki=IC50/(1+[L]/KD) where [L] is the concentration of radioligand and KD is its dissociation constant at the receptor, derived from the saturation isotherm. All experiments were performed in duplicate and the mean±standard error (SEM) of the individual Ki values was calculated.
As for `CN(Cc1ccc(Cl)c(Cl)c1)[C@H]1CN(C(=O)N2CCN(S(C)(=O)=O)CC2)C[C@@H]1c1ccc(Cl)cc1` (racemic) [Example 19, {(3SR,4RS)-3-(4-Chloro-phenyl)-4-[(3,4-dichloro-benzyl)-methyl-amino]-pyrrolidin-1-yl}-(4-methanesulfonyl-piperazin-1-yl)-methanone], the Ki (in general, the dissociation constant of the complex between target and ligand, obtained from inhibition or displacement) stood at 80.7 nM.

On to `CN(Cc1ccc(Cl)cc1)[C@H]1CN(C(=O)N2CCN(S(C)(=O)=O)CC2)C[C@@H]1c1ccc(Cl)cc1` (racemic) [Example 23, [(3RS,4SR)-3-[(4-Chloro-benzyl)-methyl-amino]-4-(4-chloro-phenyl)-pyrrolidin-1-yl]-(4-methanesulfonyl-piperazin-1-yl)-methanone], for which the Ki came to 91 nM.

In the case of `CN(Cc1ccc(C#N)cc1)[C@H]1CN(C(=O)N2CCN(S(C)(=O)=O)CC2)C[C@@H]1c1ccc(Cl)cc1` (racemic) [Example 26, 4-({[(3RS,4SR)-4-(4-Chloro-phenyl)-1-(4-methanesulfonyl-piperazine-1-carbonyl)-pyrrolidin-3-yl]-methyl-amino}-methyl)-benzonitrile], the inhibition constant Ki is 82.5 nM.

Take `CN(Cc1ccc(-c2ccccc2)cc1)[C@H]1CN(C(=O)N2CCN(S(C)(=O)=O)CC2)C[C@@H]1c1ccc(Cl)cc1` (racemic) [Example 27, [(3RS,4SR)-3-(Biphenyl-4-ylmethyl-methyl-amino)-4-(4-chloro-phenyl)-pyrrolidin-1-yl]-(4-methanesulfonyl-piperazin-1-yl)-methanone]: the inhibition constant (Ki) stood at 78 nM.

Regarding `CN(Cc1ccc(Cl)c(F)c1)[C@H]1CN(C(=O)N2CCN(S(C)(=O)=O)CC2)C[C@@H]1c1ccc(Cl)cc1` (racemic) [Example 29, [(3RS,4SR)-3-[(4-Chloro-3-fluoro-benzyl)-methyl-amino]-4-(4-chloro-phenyl)-pyrrolidin-1-yl]-(4-methanesulfonyl-piperazin-1-yl)-methanone], the Ki is 69.9 nM.

On to `CN(Cc1ccc(C(F)(F)F)c(F)c1)[C@H]1CN(C(=O)N2CCN(S(C)(=O)=O)CC2)C[C@@H]1c1ccc(Cl)cc1` (racemic) [Example 30, {(3SR,4RS)-3-(4-Chloro-phenyl)-4-[(3-fluoro-4-trifluoromethyl-benzyl)-methyl-amino]-pyrrolidin-1-yl}-(4-methanesulfonyl-piperazin-1-yl)-methanone], for which the inhibition constant (Ki) was determined as 28.4 nM.

Consider `CN(Cc1ccc(C(F)(F)F)c(F)c1)[C@H]1CN(C(=O)N2CCN(S(C)(=O)=O)CC2)C[C@@H]1c1ccc(Cl)c(Cl)c1` (racemic) [Example 31, {(3SR,4RS)-3-(3,4-Dichloro-phenyl)-4-[(3-fluoro-4-trifluoromethyl-benzyl)-methyl-amino]-pyrrolidin-1-yl}-(4-methanesulfonyl-piperazin-1-yl)-methanone], for which the Ki amounted to 8.3 nM.

Take `CN(Cc1ccc(Cl)c(Cl)c1)[C@H]1CN(C(=O)N2CCN(S(C)(=O)=O)CC2)C[C@@H]1c1ccc(Cl)c(Cl)c1` (racemic) [Example 32]: the Ki was determined as 33.3 nM.

On to `CN(Cc1ccc(Cl)cc1)[C@H]1CN(C(=O)N2CCN(S(C)(=O)=O)CC2)C[C@@H]1c1ccc(Cl)c(Cl)c1` (racemic) [Example 33, [(3RS,4SR)-3-[(4-Chloro-benzyl)-methyl-amino]-4-(3,4-dichloro-phenyl)-pyrrolidin-1-yl]-(4-methanesulfonyl-piperazin-1-yl)-methanone], for which the Ki was determined as 33.6 nM.

In the case of `CN(Cc1ccc(C#N)cc1)[C@H]1CN(C(=O)N2CCN(S(C)(=O)=O)CC2)C[C@@H]1c1ccc(Cl)c(Cl)c1` (racemic) [Example 34, 4-({[(3RS,4SR)-4-(3,4-Dichloro-phenyl)-1-(4-methanesulfonyl-piperazine-1-carbonyl)-pyrrolidin-3-yl]-methyl-amino}-methyl)-benzonitrile], the Ki was found to be 32.2 nM.

For `CN(Cc1ccc(F)c(F)c1)[C@H]1CN(C(=O)N2CCN(S(C)(=O)=O)CC2)C[C@@H]1c1ccc(Cl)c(Cl)c1` (racemic) [Example 36, {(3SR,4RS)-3-(3,4-Dichloro-phenyl)-4-[(3,4-difluoro-benzyl)-methyl-amino]-pyrrolidin-1-yl}-(4-methanesulfonyl-piperazin-1-yl)-methanone], the Ki came to 52.6 nM.

With `CN(Cc1ccc2c(c1)OCC2)[C@H]1CN(C(=O)N2CCN(S(C)(=O)=O)CC2)C[C@@H]1c1ccc(Cl)c(Cl)c1` (racemic) [Example 37, {(3SR,4RS)-3-(3,4-Dichloro-phenyl)-4-[(2,3-dihydro-benzofuran-6-ylmethyl)-methyl-amino]-pyrrolidin-1-yl}-(4-methanesulfonyl-piperazin-1-yl)-methanone], the inhibitory constant (Ki) amounted to 76.2 nM.

With `Cc1cc(CN(C)[C@H]2CN(C(=O)N3CCN(S(C)(=O)=O)CC3)C[C@@H]2c2ccc(Cl)c(Cl)c2)ccc1F` (racemic) [Example 43, {(3SR,4RS)-3-(3,4-Dichloro-phenyl)-4-[(4-fluoro-3-methyl-benzyl)-methyl-amino]-pyrrolidin-1-yl}-(4-methanesulfonyl-piperazin-1-yl)-methanone], the inhibition constant Ki came out at 84.9 nM.

Turning to `CN(Cc1ccc2cc[nH]c2c1)[C@H]1CN(C(=O)N2CCN(S(C)(=O)=O)CC2)C[C@@H]1c1ccc(Cl)c(Cl)c1` (racemic) [Example 47, {(3SR,4RS)-3-(3,4-Dichloro-phenyl)-4-[(1H-indol-6-ylmethyl)-methyl-amino]-pyrrolidin-1-yl}-(4-methanesulfonyl-piperazin-1-yl)-methanone], the inhibition constant Ki was determined as 69.1 nM.

On to `CC(=O)N1CCN(C(=O)N2C[C@H](c3ccc(Cl)c(Cl)c3)[C@@H](N(C)Cc3ccc(C(F)(F)F)c(F)c3)C2)CC1` (racemic) [Example 51, 1-(4-{(3SR,4RS)-3-(3,4-Dichloro-phenyl)-4-[(3-fluoro-4-trifluoromethyl-benzyl)-methyl-amino]-pyrrolidine-1-carbonyl}-piperazin-1-yl)-ethanone], for which the Ki was found to be 17.3 nM.

As for `CN(Cc1ccc(C(F)(F)F)c(F)c1)[C@H]1CN(C(=O)N2CCOCC2)C[C@@H]1c1ccc(Cl)c(Cl)c1` (racemic) [Example 52, {(3SR,4RS)-3-(3,4-Dichloro-phenyl)-4-[(3-fluoro-4-trifluoromethyl-benzyl)-methyl-amino]-pyrrolidin-1-yl}-morpholin-4-yl-methanone], the Ki was 71.3 nM.

As to `CN(Cc1ccc(C#N)c(F)c1)[C@H]1CN(C(=O)N2CCN(S(C)(=O)=O)CC2)C[C@@H]1c1ccc(Cl)c(Cl)c1` (racemic) [Example 56, 4-({[(3RS,4SR)-4-(3,4-Dichloro-phenyl)-1-(4-methanesulfonyl-piperazine-1-carbonyl)-pyrrolidin-3-yl]-methyl-amino}-methyl)-2-fluoro-benzonitrile], the Ki is 22 nM.

On to `CN(Cc1ccc(C(F)(F)F)c(F)c1)[C@H]1CN(C(=O)CCCCN2CCOCC2)C[C@@H]1c1ccc(Cl)c(Cl)c1` (racemic) [Example 62, 1-{(3SR,4RS)-3-(3,4-Dichloro-phenyl)-4-[(3-fluoro-4-trifluoromethyl-benzyl)-methyl-amino]-pyrrolidin-1-yl}-5-morpholin-4-yl-pentan-1-one], for which the inhibitory constant (Ki) came to 11 nM.

As to `CN(Cc1ccc(C(F)(F)F)c(F)c1)[C@H]1CN(C(=O)N2CCN(c3ncccn3)CC2)C[C@@H]1c1ccc(Cl)c(Cl)c1` (racemic) [Example 63, {(3SR,4RS)-3-(3,4-Dichloro-phenyl)-4-[(3-fluoro-4-trifluoromethyl-benzyl)-methyl-amino]-pyrrolidin-1-yl}-(4-pyrimidin-2-yl-piperazin-1-yl)-methanone], the Ki was determined as 8.6 nM.
